Measurements as given in PMC8198214, “Synthesis and Biological Evaluation of Spirocyclic Chromane Derivatives as a Potential Treatment of Prostate Cancer” (Molecules, 2021).

Tested on: 22Rv1 cells
Assay: 22Rv1 cell viability (CCK-8) antiproliferation assay
Assay type: cell-based, human
Conditions: for IC50: 22Rv1 cells, means of two independent experiments (n = 2)
Method: The 22Rv1 prostate cancer cell line in this study was purchased from KeyGEN Biotech Co. Ltd. (Nanjing, Jiangsu, China ). The cells were cultured in RPMI 1640 medium and maintained at 37 °C in a 5% CO2 incubator. For the cell viability assay, the cell slurry was diluted to required volume at a density of 80,000 cells/mL. Then, 100 μL the cell slurry was seeded in each well of the 96-well plate. The cells were incubated for 72 h at 37 °C, 5% CO2 under humidified condition. The reference and test compounds solution (200×) were prepared with DMSO and were diluted from 200× to 1× with culture medium (RPMI 1640 medium without phenol red and containing 10% fetal calf serum, penicillin (100U/mL), streptomycin (100 μg/mL) and 0.1 nM DHT). The previous culture medium was removed and 200 μL/well of the compound solution (1×) was added to assay plate (final conc: 1×). Then the cells were incubated at 37 °C, 5% CO2 under humidified conditions. 5 Days later, the CCK-8 assay reagent was equilibrated at room temperature for 30 min prior to use. CCK-8 was mixed with fresh medium at a ratio of 1:10 and 100 μL of the diluted CCK8 reagent was added to each well and the plates were incubated for 4.5 h at 37 °C. Finally, absorbance value (OD value) was read on plate reader. GraphPad Prism v5.0 software was used to process data for IC50.

| Compound | IC50 (Table 1) [µM] | IC50 (Homo sapiens, Table 2) [µM] | further results |
| --- | --- | --- | --- |
| 2-(5′-(3-Cyclopropylureido)-2′′,4′′-dioxo-2′H-dispiro[cyclopropane-1,3′-indene-1′,5′′-oxazolidin]-3′′-yl)-N-(4-fluorobenzyl)-N-((S)-1,1,1-trifluoropropan-2-yl)acetamide [A3] | 0.798 | – | – |
| C[C@H](N(Cc1ccc2c(c1)OC(F)(F)O2)C(=O)CN1C(=O)O[C@@]2(CCc3cc(-c4cnn(C)c4)ccc32)C1=O)C(F)(F)F [B1, N-((2,2-Difluorobenzo[d][1,3]dioxol-5-yl)methyl)-2-((R)-5-(1-methyl-1H-pyrazol-4-yl)-2′,4′-dioxo-2,3-dihydrospiro[indene-1,5′-oxazolidin]-3′-yl)-N-((S)-1,1,1-trifluoropropan-2-yl)acetamide] | – | 1.37 | fold less potency than A-485 (22Rv1 cell antiproliferation): 10 fold |
| CN1C2CCC1CC(N(Cc1ccc(F)cc1)C(=O)CN1C(=O)O[C@@]3(CCc4cc(-c5cnn(C)c5)ccc43)C1=O)C2 (stereo partly drawn) [B2, N-(4-Fluorobenzyl)-2-((R)-5-(1-methyl-1H-pyrazol-4-yl)-2′,4′-dioxo-2,3-dihydrospiro[indene-1,5′-oxazolidin]-3′-yl)-N-(8-methyl-8-azabicyclo[3.2.1]octan-3-yl)acetamide] | – | 37.6 | – |
| Cn1cc(-c2ccc3c(c2)CCC32OC(=O)N(CC(=O)N(Cc3ccc(F)cc3)[C@@H]3CN4CCC3CC4)C2=O)cn1 (stereo partly drawn) [B3, N-(4-Fluorobenzyl)-2-(5-(1-methyl-1H-pyrazol-4-yl)-2′,4′-dioxo-2,3-dihydrospiro [indene-1,5′-oxazolidin]-3′-yl)-N-((S)-quinuclidin-3-yl)acetamide] | – | > 25 | – |
| Cn1cc(-c2ccc3c(c2)CCC32OC(=O)N(CC(=O)N(Cc3ccc(F)cc3)[C@H]3CCc4ccccc43)C2=O)cn1 (stereo partly drawn) [B4, N-((S)-2,3-Dihydro-1H-inden-1-yl)-N-(4-fluorobenzyl)-2-(5-(1-methyl-1H-pyrazol-4-yl)-2′,4′-dioxo-2,3-dihydrospiro[indene-1,5′-oxazolidin]-3′-yl)acetamide] | – | 0.252 | – |
| CNC(=O)Nc1ccc2c(c1)CCC21OC(=O)N(CC(=O)N(Cc2ccc(F)cc2)[C@H]2CCc3ccccc32)C1=O (stereo partly drawn) [B5, N-((S)-2,3-Dihydro-1H-inden-1-yl)-N-(4-fluorobenzyl)-2-(5-(3-methylureido)-2′,4′-dioxo-2,3-dihydrospiro[indene-1,5′-oxazolidin]-3′-yl)acetamide] | – | 0.406 | – |
| CC(C)(O)Cn1cc(-c2ccc3c(c2)CCC32OC(=O)N(CC(=O)N(Cc3ccc(F)cc3)[C@H]3CCc4ccccc43)C2=O)cn1 (stereo partly drawn) [B6, N-((S)-2,3-Dihydro-1H-inden-1-yl)-N-(4-fluorobenzyl)-2-(5-(1-(2-hydroxy-2-methylpropyl)-1H-pyrazol-4-yl)-2′,4′-dioxo-2,3-dihydrospiro[indene-1,5′-oxazolidin]-3′-yl)acetamide] | – | 0.431 | – |
| CNC(=O)Cn1cc(-c2ccc3c(c2)CCC32OC(=O)N(CC(=O)N(Cc3ccc(F)cc3)[C@H]3CCc4ccccc43)C2=O)cn1 (stereo partly drawn) [B7, N-((S)-2,3-Dihydro-1H-inden-1-yl)-N-(4-fluorobenzyl)-2-(5-(1-(2-(methylamino)-2-oxoethyl)-1H-pyrazol-4-yl)-2′,4′-dioxo-2,3-dihydrospiro[indene-1,5′-oxazolidin]-3′-yl)acetamide] | – | 0.27 | – |
| CNC(=O)Cn1cc(-c2ccc3c(c2)CCC32OC(=O)N(CC(=O)N(Cc3ccc(F)cc3)[C@H]3CCc4cc(F)ccc43)C2=O)cn1 (stereo partly drawn) [B9, N-((S)-5-Fluoro-2,3-dihydro-1H-inden-1-yl)-N-(4-fluorobenzyl)-2-(5-(1-(2-(methylamino)-2-oxoethyl)-1H-pyrazol-4-yl)-2′,4′-dioxo-2,3-dihydrospiro[indene-1,5′-oxazolidin]-3′-yl)acetamide] | – | 0.334 | – |
| CNC(=O)Cn1cc(-c2ccc3c(c2)CCC32OC(=O)N(CC(=O)N(Cc3ccc(F)cc3)[C@@H]3CCc4ccccc43)C2=O)cn1 (stereo partly drawn) [B10, N-((R)-2,3-Dihydro-1H-inden-1-yl)-N-(4-fluorobenzyl)-2-(5-(1-(2-(methylamino)-2-oxoethyl)-1H-pyrazol-4-yl)-2′,4′-dioxo-2,3-dihydrospiro[indene-1,5′-oxazolidin]-3′-yl)acetamide] | – | 1.66 | – |
| CNC(=O)Cn1cc(-c2ccc3c(c2)CCC32OC(=O)N(CC(=O)N(Cc3ccc(F)cc3)[C@@H]3CCc4ncccc43)C2=O)cn1 (stereo partly drawn) [B11, N-((R)-6,7-Dihydro-5H-cyclopenta[b]pyridin-5-yl)-N-(4-fluorobenzyl)-2-(5-(1-(2-(methylamino)-2-oxoethyl)-1H-pyrazol-4-yl)-2′,4′-dioxo-2,3-dihydrospiro[indene-1,5′-oxazolidin]-3′-yl)acetamide] | – | 0.34 | fold increased potency versus B10 (22Rv1 cell antiproliferation): 5 fold |
| CNC(=O)Cn1cc(-c2ccc3c(c2)CCC32OC(=O)N(CC(=O)N(Cc3ccc(F)cn3)[C@@H]3CCc4ccccc43)C2=O)cn1 (stereo partly drawn) [B12, N-((R)-2,3-Dihydro-1H-inden-1-yl)-N-((5-fluoropyridin-2-yl)methyl)-2-(5-(1-(2-(methylamino)-2-oxoethyl)-1H-pyrazol-4-yl)-2′,4′-dioxo-2,3-dihydrospiro[indene-1,5′-oxazolidin]-3′-yl)acetamide] | – | 0.265 | fold increased potency versus B10 (22Rv1 cell antiproliferation): 5 fold |
| CNC(=O)Cn1cc(-c2ccc3c(c2)CCC32OC(=O)N(CC(=O)N(Cc3ccc(F)cn3)[C@@H]3CCc4cccnc43)C2=O)cn1 (stereo partly drawn) [B13, N-((R)-6,7-Dihydro-5H-cyclopenta[b]pyridin-7-yl)-N-((5-fluoropyridin-2-yl)methyl)-2-(5-(1-(2-(methylamino)-2-oxoethyl)-1H-pyrazol-4-yl)-2′,4′-dioxo-2,3-dihydrospiro[indene-1,5′-oxazolidin]-3′-yl)acetamide] | – | 3.47 | – |
| CNC(=O)Cn1cc(-c2ccc3c(c2)CCC32OC(=O)N(CC(=O)N(Cc3ccc(F)cc3)[C@H]3CCCc4ccccc43)C2=O)cn1 (stereo partly drawn) [B15, N-(4-fluorobenzyl)-2-(5-(1-(2-(methylamino)-2-oxoethyl)-1H-pyrazol-4-yl)-2′,4′-dioxo-2,3-dihydrospiro[indene-1,5′-oxazolidin]-3′-yl)-N-((S)-1,2,3,4-tetrahydronaphthalen-1-yl)acetamide] | – | 0.45 | – |
| CNC(=O)Nc1ccc2c(c1)CCC21OC(=O)N(CC(=O)N2CCCc3ccc(C(F)F)cc32)C1=O (stereo not drawn) [B17, 1-(3′-(2-(7-(Difluoromethyl)-3,4-dihydroquinolin-1(2H)-yl)-2-oxoethyl)-2′,4′-dioxo-2,3-dihydrospiro[indene-1,5′-oxazolidin]-5-yl)-3-methylurea] | – | 8.7 | – |
| Cn1cc(-c2ccc3c(c2)CCC32OC(=O)N(CC(=O)N3CCn4c(nnc4C(F)(F)F)C3)C2=O)cn1 (stereo not drawn) [B18, 5-(1-Methyl-1H-pyrazol-4-yl)-3′-(2-oxo-2-(3-(trifluoromethyl)-5,6-dihydro-[1,2,4]triazolo[4,3-a]pyrazin-7(8H)-yl)ethyl)-2,3-dihydrospiro[indene-1,5′-oxazolidine]-2′,4′-dione] | – | > 25 | – |
| N-(4-Fluorobenzyl)-2-(2-methyl-2′,4′-dioxo-2,4,8,9-tetrahydrospiro[cyclopenta [6,7]chromeno [3,4-c]pyrazole-7,5′-oxazolidin]-3′-yl)-N-((S)-1,1,1-trifluoropropan-2-yl)acetamide [A4] | > 100 | – | – |
| N-(4-Fluorobenzyl)-2-(3-(1-(2-(methylamino)-2-oxoethyl)-1H-pyrazol-4-yl)-2′,4′-dioxo-5,6-dihydrospiro[cyclopenta[b]pyridine-7,5′-oxazolidin]-3′-yl)-N-((S)-1,1,1-trifluoropropan-2-yl)acetamide [A5] | 16.1 | – | – |
| N-(4-Fluorobenzyl)-2-(3-(1-(2-(methylamino)-2-oxoethyl)-1H-pyrazol-4-yl)-2′,4′-dioxospiro[fluorene-9,5′-oxazolidin]-3′-yl)-N-((S)-1,1,1-trifluoropropan-2-yl)acetamide [A1] | > 100 | – | – |
| N-(4-Fluorobenzyl)-2-(3-(1-methyl-1H-pyrazol-4-yl)-2′,4′-dioxo-5,6-dihydrospiro [cyclopenta[c]pyridine-7,5′-oxazolidin]-3′-yl)-N-((S)-1,1,1-trifluoropropan-2-yl)acetamide [A6] | 27 | – | – |
| N-(4-Fluorobenzyl)-2-(5-(1-(2-(methylamino)-2-oxoethyl)-1H-pyrazol-4-yl)-2′,5′-dioxo-2,3-dihydrospiro[indene-1,3′-pyrrolidin]-1′-yl)-N-((S)-1,1,1-trifluoropropan-2-yl)acetamide [A7] | 1.8 | – | – |
| N-(4-Fluorobenzyl)-2-(5-(3-methylureido)-2′,5′-dioxo-2,3-dihydrospiro[indene-1,3′-pyrrolidin]-1′-yl)-N-((S)-1,1,1-trifluoropropan-2-yl)acetamide [A8] | 6.41 | – | – |
| N-(4-Fluorobenzyl)-2-(5′-(3-methylureido)-2′′,4′′-dioxo-2′H-dispiro[cyclopropane-1,3′-indene-1′,5′′-oxazolidin]-3′′-yl)-N-((S)-1,1,1-trifluoropropan-2-yl)acetamide [A2] | 0.351 | – | – |
| N-(4-Fluorobenzyl)-N-((S)-1-methyl-4,5,6,7-tetrahydro-1H-indazol-4-yl)-2-(5-(1-(2-(methylamino)-2-oxoethyl)-1H-pyrazol-4-yl)-2′,4′-dioxo-2,3-dihydrospiro [indene-1,5′-oxazolidin]-3′-yl)acetamide [B14] | – | – | IC50 (Table 2): 1.09 µM |
